Source: patent US10632181B2, “Composition, containing RGD motif-containing peptide or fragment thereof, for treating burns and glaucoma, alleviating skin wrinkles, and promoting hair growth” (HUONS CO., LTD., priority 2014, dated 2020)
Positions of bridges follow the written chain, without caps; N, C: chain ends. No end group written: not given here.

Assays:
[1] = system: 2-degree burns of male SD rats; assay: Burn treatment test: histopathology (H&E) of burn site; assay type: in vivo, SD (Sprague-Dawley) rats; conditions: score 0-4, 14th day after burn
Method: The experiment was carried out with 55 male SD (Sprague-Dawley) rats that were divided into […] groups: 5 rats for normal group (1 group, G1), 9-10 rats for negative control (1 group, G2), 30 rats for experimental group (3 groups, 10 rats in each group, G3, G4, G5), and 9-10 rats for positive control (1 group, G6). In the remaining groups except normal group, burned male SD rats was used for experiment. After SD rats were anesthesized, 2-degree burns, 2 cm in diameter, were induced on the SD rats using an aluminum electric soldering iron.
Test substance HU022 (SEQ ID NO:1) (G3, G4, G5), normal saline solution (G2) and Fiblast (G6) were applied to the skin of the burned male SD rats repeatedly once a day seven times a week for 7 days. Fiblast was applied to control group (G6) in 10 μg/dose/head, and the experimental group was divided into 3 groups and test substance was applied to each group in 3.3 μg/dose/head (G3), 10 μg/dose/head (G4), and 30 μg/dose/head (G5).
On the 14th day after burn, the burn site on the back was scraped from the dermis and fixed in 10% neutrally buffered formalin solution, and histopathology test was conducted through H&E staining.
With the measurement results, parametric comparison determined significance via Student's t-test and One-Way ANOVA, and significance testing relative to negative control was conducted. Furthermore, with the histopathology test results of burns, Kruskal-Wallis' H-test was conducted, and when significance between groups was identified, comparison between groups was performed through Mann-Whitney U-test. The computation program for statistics was SPSS 10.1 K. P<0.05 was determined to be statistically significant.

[2] = Hair growth test: body weight; assay type: in vivo; conditions: skin
Method: (§1) This test was conducted to assess the influence on hair growth of C57BL/6 mouse when 4 types of test substances, HU024 (SEQ ID NO:2), HU025 (SEQ ID NO:3), HU026 (SEQ ID NO:4), and HU027 (SEQ ID NO:5), were applied to the skin for 14 days.
(§2) The group design was set to negative control (sterile water for injection G1), test substance HU024 (SEQ ID NO:2) 20 ug/head/day (G2), test substance HU024 (SEQ ID NO:2) 60 ug/head/day (G3), test substance HU025 (SEQ ID NO:3) 20 ug/head/day (G4), test substance HU025 (SEQ ID NO:3) 60 ug/head/day (G5), test substance HU026 (SEQ ID NO:4) 20 ug/head/day (G6), test substance HU026 (SEQ ID NO:4) 60 ug/head/day (G7), test substance HU027 (SEQ ID NO:5) 20 ug/head/day (G8), test substance HU027 (SEQ ID NO:5) 60 ug/head/day (G9) and positive control minoxyl 3% (G10) administered groups. Each group had 10 animals.
(§3) After the animal was put under anesthesia using zoletil (1 mL/kg, i.p), the back of the animal was primarily shaved using a depilator, and Veet depilatory was evenly applied on the back. After about 5 minutes, the applied site was cleaned up using gauze moistened with sterile water for injection. Only animal whose shaved back was scarlet in color was used for group separation. The test substance was applied to the same site daily once per day, 7 times per week for 14 days, and the test substance was evenly applied to the shaved site (on the back) by rubbing with a glass rod about 10 times.
The test item was measurements of dead animal, general syndrome, weight change, hair growing area and hair weight, and comparison with negative control was conducted.
(§4) The measurement results were analyzed using SPSS (ver. 10.1K), Duncan t-test for weight changes was conducted through one-way analysis of variance, hair weight was compared between groups using Student's t-test, and hair growing area was compared between groups through nonparametric multiple comparison procedures Whitney-Mann methods. P<0.05 was determined to be statistically significant.

[3] = system: hair growth of C57BL/6 mouse; assay: Hair growth test: hair growing area; assay type: in vivo
Method: as §1, §2, §3
The hair growing area (%) relative to the test substance-applied area was measured and determined, and Image analyzer program (Image Pro Plus ver. 6.3, Cybermetics, USA) was used to measure. […] Imaging was performed together with the measurements on the date when the hair area was measured. On the next day after the end of application, the animals were killed by CO2 gas, and hair on the hair growing area was removed by a depilator and hair weight was measured.
as §4

[4] = system: glaucoma animal model having microbead-induced elevated intraocular pressure; assay: Glaucoma test: intraocular pressure; assay type: in vivo, mouse; conditions: 20 ug/ml applied to eye once daily
Method: For control drug, Taflotan eye drops (Santen Pharmaceutical Co., Ltd.) were used, and for test drug, Taflotan eye drops+HU024 (SEQ ID NO:2) (sample 1), HU024 (SEQ ID NO:2) (sample 2), HU025 (SEQ ID NO:3) (sample 3), HU026 (SEQ ID NO:4) (sample 4), and HU027 (SEQ ID NO:5) (sample 5) were used, and testing was performed on glaucoma animal model having microbead-induced elevated intraocular pressure. In experimental animal model, Rompun solution for injection and zoletil were mixed and used to put the experimental animal under anesthesia, topical anesthetic Alcaine was applied to eye, 1×106 microbead/mL 1 μL was injected into anterior chamber using micro glass needle to induce an increase in intraocular pressure for 2 weeks (IOVS 2011 Vol. 52 36-).
The control drug and 5 samples were provided to the experimental animal having the elevated intraocular pressure for 2 weeks, 5 samples were applied to eye once daily, comparative verification of efficacy was performed, and intraocular pressure reduction and optic nerve cell in the retina was observed through administration for 4 weeks.
The intraocular pressure was measured using a contact-type intraocular pressure meter Tono lab's tonometer TV02 model. […] In 5-7 days after fluorescent probe injection, the eye was enucleated and fixed in 4% paraformaldehyde at room temperature for 4 hours. The retina was separated from choroid of the fixed eye and mounted on a slide. In each experimental group slide, optic nerve cell expressing fluorescence was detected using fluorescence microscope, images were taken at a magnification of ×40 and ×200, and data was collected.

[5] = system: skin; conditions: in vivo
Method: Women aged 30-65 having wrinkles around eyes were tested. […] They had second and third visits at the interval of 2 weeks after the start of use, and at each visit, were required to respond to various types of assessment and investigation defined in the experiment.
Furthermore, safety assessment was performed, and for safety of clinical test product, in all subjects having used the test product at least once, abnormal responses found at the second week and fourth week after use and abnormal responses reported during the test period were all used as safety assessment data of the product.

HU022: polypeptide consisting of 452nd-509th amino acids of ADAM 15 (GenBank AAH14566.1), 58 amino acids; commercial product (EYEGENE Inc.)
Epidermal regeneration ([1]; 3.3 μg/head/day): 0.1 ± 0.0 points | Eschar ([1]; 3.3 μg/head/day): 4.0 ± 0.0 points | Fibroplasia (connective tissue growth) ([1]; 3.3 μg/head/day): 3.1 ± 0.3 points | Infiltration of Inflammatory cells ([1]; 3.3 μg/head/day): 3.0 ± 0.0 points | Pilosebaceous (skin appendage regeneration) ([1]; 3.3 μg/head/day): 0.1 ± 0.3 points | Epidermal regeneration ([1]; 10 μg/head/day): 0.6 ± 0.5 points | Eschar ([1]; 10 μg/head/day): 3.2 ± 0.6 points | Fibroplasia (connective tissue growth) ([1]; 10 μg/head/day): 3.0 ± 0.5 points | Infiltration of Inflammatory cells ([1]; 10 μg/head/day): 3.0 ± 0.0 points | Pilosebaceous (skin appendage regeneration) ([1]; 10 μg/head/day): 0.9 ± 1.1 points | Epidermal regeneration ([1]; 30 μg/head/day): 0.6 ± 0.7 points | Eschar ([1]; 30 μg/head/day): 2.7 ± 0.7 points | Fibroplasia (connective tissue growth) ([1]; 30 μg/head/day): 3.3 ± 0.5 points | Infiltration of Inflammatory cells ([1]; 30 μg/head/day): 3.0 ± 0.0 points | Pilosebaceous (skin appendage regeneration) ([1]; 30 μg/head/day): 1.1 ± 1.0 points

HU024 (RPTRGDCDLPEFCPG; disulfide 7-13; listed as Homo sapiens)
BODY WEIGHTS ([2]; 20 ug/head/day, Day 1): 21.34 ± 0.60 g | BODY WEIGHTS ([2]; 20 ug/head/day, Day 7): 22.64 ± 0.76 g | BODY WEIGHTS ([2]; 20 ug/head/day, Day 11): 24.15 ± 0.86 g | BODY WEIGHTS ([2]; 60 ug/head/day, Day 1): 21.54 ± 0.53 g | BODY WEIGHTS ([2]; 60 ug/head/day, Day 7): 23.02 ± 0.74 g | BODY WEIGHTS ([2]; 60 ug/head/day, Day 11): 24.30 ± 1.08 g | HAIR AREA (%) ([3]; 20 ug/head/day, Day 1): 0.02 ± 0.01% | HAIR AREA (%) ([3]; 20 ug/head/day, Day 4): 0.06 ± 0.04% | HAIR AREA (%) ([3]; 20 ug/head/day, Day 7): 0.44 ± 0.19% | HAIR AREA (%) ([3]; 20 ug/head/day, Day 10): 7.55 ± 2.56% | HAIR AREA (%) ([3]; 20 ug/head/day, Day 14): 67.34 ± 9.03% | HAIR AREA (%) ([3]; 60 ug/head/day, Day 1): 0.04 ± 0.04% | HAIR AREA (%) ([3]; 60 ug/head/day, Day 4): 0.00 ± 0.00% | HAIR AREA (%) ([3]; 60 ug/head/day, Day 7): 0.85 ± 0.75% | HAIR AREA (%) ([3]; 60 ug/head/day, Day 10): 6.56 ± 3.04% | HAIR AREA (%) ([3]; 60 ug/head/day, Day 14): 55.69 ± 12.45% | intraocular pressure change [4]: A reduction in intraocular pressure was observed | abnormal response / skin irritation [5]: safe product not causing irritation to the skin
